In US20150335657A1, “Methods for Modulating Sirtuin Enzymes” (The Trustees of Princeton University, priority 2014, published 2015):

Tests used:
[1] = test system: human cytomegalovirus (HCMV) AD169 strain; assay: Antiviral activity against HCMV in MRC5 fibroblasts (virus yield, fluorescent focus assay); type: cell-based; conditions: Human betaherpesvirus 5, HCMV AD169, 1 infectious unit/cell, treated 2 h after infection, virus in medium at 96 h
SIRT6 = target: T1, SIRT6 (Homo sapiens, UniProt Q8N6T7); assay: Sirtuin deacetylase enzyme activity assay (Cayman Chemical), compound screen; type: biochemical; conditions: compound at 50 μM; Z-score of change in fluorescent signal; + increase, − decrease
T1 construct: purchased Cayman Chemical
Text: (§1) Sirtuins have been identified as innate viral restriction factors and it has been previously shown that drugs that modulate the activity of these enzymes block the production of multiple viruses in culture (see, e.g., WO 2012/106509). Sirtuins are NAD-dependent enzymes that regulate the activity of target proteins by post-translational modifications and thereby control key cellular events (see, e.g., Haigis and Sinclair (2010) Ann Rev Pathol Mech Dis 5:253-95). SIRT1, SIRT2, SIRT3 and SIRT6 have shown a detectable deacetylase activity in well-established biochemical assays that utilize recombinant SIRT1, SIRT2, SIRT3, and SIRT6 enzymes and fluorophore-conjugated acetyl-peptides. As described in the Examples below, the deacetylase activity of these sirtuins were used as a surrogate to identify compounds having broad-range antiviral activity.
(§2) A publically disclosed, small molecule library consisting of approximately 13,000 compounds was screened using a commercially available (Cayman Chemical) enzyme activity assay. Deacetylase activity of sirtuins SIRT1, SIRT2, SIRT3, and SIRT6 was used as a surrogate to identify compounds with the potential for having broad-range antiviral activity. The compounds were tested at a single concentration (50 μM) in microtiter plates and their activity against the four sirtuins was recorded as a change in fluorescent signal intensity. […] Activation of sirtuin activity generated positive Z-scores and inhibition of sirtuin activity produced negative Z-scores.

SIRT2 = target: T2, SIRT2 (Homo sapiens, UniProt Q8IXJ6); assay: as above; type: biochemical; conditions: compound at 50 μM; Z-score of change in fluorescent signal; + increase, − decrease
T2 construct: purchased Cayman Chemical
T2 sequence (Q8IXJ6 1-389): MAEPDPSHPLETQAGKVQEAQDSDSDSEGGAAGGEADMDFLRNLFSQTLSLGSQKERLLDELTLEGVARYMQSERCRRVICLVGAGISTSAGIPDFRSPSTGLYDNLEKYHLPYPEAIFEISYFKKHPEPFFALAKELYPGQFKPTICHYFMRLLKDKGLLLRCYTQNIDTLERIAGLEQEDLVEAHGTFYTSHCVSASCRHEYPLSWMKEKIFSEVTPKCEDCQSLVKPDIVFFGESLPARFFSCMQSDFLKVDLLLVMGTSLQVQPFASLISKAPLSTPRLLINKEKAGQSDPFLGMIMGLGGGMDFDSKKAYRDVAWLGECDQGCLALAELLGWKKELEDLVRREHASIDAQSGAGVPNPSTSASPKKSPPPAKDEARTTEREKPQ
Text: as §1, §2

SIRT1 = target: T3, SIRT1 (Homo sapiens, UniProt Q96EB6); assay: as above; type: biochemical; conditions: compound at 50 μM; Z-score of change in fluorescent signal; + increase, − decrease
T3 construct: purchased Cayman Chemical
T3 sequence (Q96EB6 1-747): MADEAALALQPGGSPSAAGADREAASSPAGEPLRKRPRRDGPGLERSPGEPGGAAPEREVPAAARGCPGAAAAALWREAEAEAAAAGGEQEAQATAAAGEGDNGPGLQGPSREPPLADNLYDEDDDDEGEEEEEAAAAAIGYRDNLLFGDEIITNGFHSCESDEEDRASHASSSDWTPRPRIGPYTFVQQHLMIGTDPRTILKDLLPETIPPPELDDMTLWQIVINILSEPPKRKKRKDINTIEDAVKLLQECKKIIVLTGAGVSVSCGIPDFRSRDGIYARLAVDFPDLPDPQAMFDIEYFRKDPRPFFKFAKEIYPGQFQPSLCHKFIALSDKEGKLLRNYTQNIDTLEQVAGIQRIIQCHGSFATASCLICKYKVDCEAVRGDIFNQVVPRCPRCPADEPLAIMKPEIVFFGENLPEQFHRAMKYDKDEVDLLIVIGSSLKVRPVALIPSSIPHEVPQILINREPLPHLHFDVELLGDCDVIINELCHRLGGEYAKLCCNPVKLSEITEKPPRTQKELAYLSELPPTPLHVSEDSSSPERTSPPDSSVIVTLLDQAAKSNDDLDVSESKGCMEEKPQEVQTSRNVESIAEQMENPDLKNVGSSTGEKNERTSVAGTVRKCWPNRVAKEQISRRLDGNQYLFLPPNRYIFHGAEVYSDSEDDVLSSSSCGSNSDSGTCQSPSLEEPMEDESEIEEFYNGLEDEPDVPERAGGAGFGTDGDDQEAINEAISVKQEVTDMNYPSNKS
Text: as §1, §2

SIRT3 = target: T4, SIRT3 (Homo sapiens, UniProt Q9NTG7); assay: as above; type: biochemical; conditions: compound at 50 μM; Z-score of change in fluorescent signal; + increase, − decrease
T4 construct: purchased Cayman Chemical
T4 sequence (Q9NTG7 1-399): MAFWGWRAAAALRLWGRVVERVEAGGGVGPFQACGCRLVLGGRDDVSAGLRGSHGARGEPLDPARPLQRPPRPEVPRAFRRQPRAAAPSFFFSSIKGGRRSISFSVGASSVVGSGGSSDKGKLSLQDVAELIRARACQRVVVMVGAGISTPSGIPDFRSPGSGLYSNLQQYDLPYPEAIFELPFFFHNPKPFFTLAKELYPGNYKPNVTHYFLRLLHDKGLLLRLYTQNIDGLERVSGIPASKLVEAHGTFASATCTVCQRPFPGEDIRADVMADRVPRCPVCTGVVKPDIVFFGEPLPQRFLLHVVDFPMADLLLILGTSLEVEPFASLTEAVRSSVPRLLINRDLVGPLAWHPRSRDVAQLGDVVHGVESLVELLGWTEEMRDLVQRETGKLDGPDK
Text: as §1, §2

[2] = Tetrazolium-based cell viability assay (cytotoxicity); conditions: human

T1 sequence (Q8N6T7 whole entry): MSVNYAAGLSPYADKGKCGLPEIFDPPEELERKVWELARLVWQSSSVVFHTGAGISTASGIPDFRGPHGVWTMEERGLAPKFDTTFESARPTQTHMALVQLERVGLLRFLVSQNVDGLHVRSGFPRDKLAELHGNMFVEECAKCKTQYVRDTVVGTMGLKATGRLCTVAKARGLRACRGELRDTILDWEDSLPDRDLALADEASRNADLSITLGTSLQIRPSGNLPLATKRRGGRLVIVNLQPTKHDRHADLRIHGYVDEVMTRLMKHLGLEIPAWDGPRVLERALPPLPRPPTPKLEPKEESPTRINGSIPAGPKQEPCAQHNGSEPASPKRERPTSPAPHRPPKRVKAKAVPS

Row | Structure (SMILES) | IC50 [1] [µM] | IC90 [1] [µM] | SIRT6 (change in sirtuin deacetylase activity, Z-score class) (SIRT6) | SIRT2 (change in sirtuin deacetylase activity, Z-score class) (SIRT2) | SIRT1 (change in sirtuin deacetylase activity, Z-score class) (SIRT1) | SIRT3 (change in sirtuin deacetylase activity, Z-score class) (SIRT3) | CC50 at 96 h [2] [µM]
1 | COc1ccccc1C(C)C(F)CNc1cnc2ccccc2c1 (stereo not shown) | 1.19 | 2.24 | +++ (Z-score ≧ 3 = +++) | ++ (2 ≦ Z-score < 3 = ++) | +++ (Z-score ≧ 3 = +++) | na (−2 ≦ Z-score < 2 = no activity (na)) | > 50
2 | COc1cccc(CN2C(=O)c3cccnc3N(C)C2C(F)C(C)c2cnc3ccccc3c2)c1 (stereo not shown) | 1.54 | 15.5 | +++ (Z-score ≧ 3 = +++) | +++ (Z-score ≧ 3 = +++) | +++ (Z-score ≧ 3 = +++) | +++ (Z-score ≧ 3 = +++) | 25 to 50
3 | CC(CCNc1cccnc1)c1c[nH]c2ccccc12 (stereo not shown) | 15.8 | 43.1 | na (−2 ≦ Z-score < 2 = no activity (na)) | +++ (Z-score ≧ 3 = +++) | na (−2 ≦ Z-score < 2 = no activity (na)) | na (−2 ≦ Z-score < 2 = no activity (na)) | > 50
4 | COc1ccc2[nH]cc(C(C)CCNc3cccnc3)c2c1 (stereo not shown) | 17.4 | 46.5 | na (−2 ≦ Z-score < 2 = no activity (na)) | +++ (Z-score ≧ 3 = +++) | na (−2 ≦ Z-score < 2 = no activity (na)) | na (−2 ≦ Z-score < 2 = no activity (na)) | > 50
5 | CCN1CC(C(C)c2ccc(C)nc2)Oc2ccc(C(F)(F)F)cc2C1=O (stereo not shown) | 18.4 | 42.3 | na (−2 ≦ Z-score < 2 = no activity (na)) | +++ (Z-score ≧ 3 = +++) | na (−2 ≦ Z-score < 2 = no activity (na)) | na (−2 ≦ Z-score < 2 = no activity (na)) | > 50
6 | CC(c1ccccc1F)C(O)CNc1ccc(O)nc1 (stereo not shown) | 19.4 | 44 | +++ (Z-score ≧ 3 = +++) | na (−2 ≦ Z-score < 2 = no activity (na)) | na (−2 ≦ Z-score < 2 = no activity (na)) | +++ (Z-score ≧ 3 = +++) | > 50
7 | CC(c1ccnn1C)C(CN1CCN(C)CC1)Oc1ccc(C#N)cn1 (stereo not shown) | 21.1 | 42.4 | +++ (Z-score ≧ 3 = +++) | na (−2 ≦ Z-score < 2 = no activity (na)) | −− (−3 < Z-score ≦ −2 = −−) | na (−2 ≦ Z-score < 2 = no activity (na)) | > 50
8 | COc1ccccc1C1C(=O)N(C(C)C)CC1O (stereo not shown) | 23.9 | 47.2 | na (−2 ≦ Z-score < 2 = no activity (na)) | +++ (Z-score ≧ 3 = +++) | na (−2 ≦ Z-score < 2 = no activity (na)) | na (−2 ≦ Z-score < 2 = no activity (na)) | > 50
9 | CC(C)c1cc(N)n(C(C(=O)O)C(C)c2ccccc2Cl)n1 (stereo not shown) | 25.5 | 57.9 | na (−2 ≦ Z-score < 2 = no activity (na)) | −− (−3 < Z-score ≦ −2 = −−) | −− (−3 < Z-score ≦ −2 = −−) | na (−2 ≦ Z-score < 2 = no activity (na)) | > 50
10 | COc1cccc(C(C)C(O)Cn2cc(-c3cc(Cl)cnc3N)nn2)c1 (stereo not shown) | 26.2 | 44.3 | +++ (Z-score ≧ 3 = +++) | na (−2 ≦ Z-score < 2 = no activity (na)) | +++ (Z-score ≧ 3 = +++) | na (−2 ≦ Z-score < 2 = no activity (na)) | > 50
11 | COc1ccc(C(C)C(CN2CCc3ccccc3C2)n2nc(-c3cccnc3)cc2N)cc1 (stereo not shown) | 27.7 | 55.7 | na (−2 ≦ Z-score < 2 = no activity (na)) | −− (−3 < Z-score ≦ −2 = −−) | −−− (Z-score ≦ −3 = −−−) | na (−2 ≦ Z-score < 2 = no activity (na)) | > 50
12 | CC(c1ccncc1)c1cnc(N2CCc3ccccc3C2)s1 (stereo not shown) | 28.3 | 41.9 | na (−2 ≦ Z-score < 2 = no activity (na)) | −−− (Z-score ≦ −3 = −−−) | na (−2 ≦ Z-score < 2 = no activity (na)) | na (−2 ≦ Z-score < 2 = no activity (na)) | > 50
13 | Cc1ccc(C(C)C(CN2CCN(C)CC2)Oc2cnccn2)cn1 (stereo not shown) | 30.2 | 56 | +++ (Z-score ≧ 3 = +++) | na (−2 ≦ Z-score < 2 = no activity (na)) | na (−2 ≦ Z-score < 2 = no activity (na)) | na (−2 ≦ Z-score < 2 = no activity (na)) | > 50
